We go through two compounds from patent publication US6133294A (priority 1999, dated 2000).

Common to all, as to format: in vivo
The subject of assay [1] is Erysiphe graminis. Kind of assay: Powdery Mildew of Wheat (Erysiphe graminis--ERYSGT). To be noted: Blumeria graminis; wheat (cultivar Monon), 100 ppm spray to run off, inoculated after 24 hours, 1DP; read-out: control of plant disease, ERYSGT 1DP. In outline:
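Wheat seedlings (cv. Monon, 1-2 leaf stage) were sprayed to run-off at 100 ppm, from acetone solution diluted with nine volumes 0.05% aqueous Tween-20 or Triton X-100. Control rated on a scale.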

Assay [2] relates to Leptosphaeria nodorum. Description: Glume blotch of wheat (Leptosphaeria nodorum--LEPTNO). To be noted: Parastagonospora nodorum; wheat (cultivar Monon), 100 ppm spray to run off, inoculated after 24 hours, 1DP; read-out: control of plant disease, LEPTNO 1DP. Summed up: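 Wheat seedlings (cv. Monon, 1-2 leaf, BBCH 12) sprayed to run-off at 100 ppm; compound in acetone diluted with nine volumes 0.05% aqueous Tween-20 or Triton X-100. Spore inoculation with Leptosphaeria nodorum after 24 hours; disease rated in greenhouse once untreated controls developed symptoms.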

For assay [3], the system named is Phytophthora infestans. Kind of assay: whole plant or invertebrate. To be noted: Phytophthora infestans, 24 h, read-out: control of plant disease, PHYTIN 1DP.
Assay [4] relates to Puccinia recondita. Kind of assay: Brown rust (Puccinia recondita--PUCCRT). The note with it: Puccinia recondita; wheat (cultivar Monon), 100 ppm spray to run off, inoculated after 24 hours, 1DP; read-out: control of plant disease, PUCCRT 1DP. Summed up:
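Wheat (cv. Monon) seedlings were sprayed to run-off at 100 ppm, with compound in acetone diluted with nine volumes of 0.05% aqueous Tween-20 or Triton X-100. Plants were inoculated with Puccinia recondita spores 24 h later.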

Take `COC=C(C(=O)OC)c1ccccc1COc1ncc(-c2nc(C(C)(C)C)no2)cc1Cl` [Example 100]: the pest or weed control at 100 ppm in assay [1] lay in the range of 25 to 74%; in assay [2] it was 25 to 74%; in assay [3] it was 75 to 100%; in assay [4] it was 75 to 100%.

Consider `CCc1noc(-c2cnc(OCc3ccccc3C(=NOC)C(=O)OC)c(Cl)c2)n1` [Example 101], for which the pest or weed control at 100 ppm lay within 75 to 100% in assay [1], 25 to 74% in assay [2], 75 to 100% in assay [3] and 75 to 100% in assay [4].
